Test results reported in publication PMC7725003, “Systematically Studying the Optimal Amino Acid Distribution Patterns of the Amphiphilic Structure by Using the Ultrashort Amphiphiles” (Frontiers in Microbiology, 2020).
Where no end group is shown, it is not given here.

Legend:
P. aeruginosa ATCC 27853 = format: cell-based, Pseudomonas aeruginosa; conditions: after 30 passages in sub-MBC concentration
Description: Finally, P. aeruginosa ATCC 27853 was used as the model of the drug resistance study. […] The MBC values of the drugs against every two passage’s cells were tested. As a control, MBCs were also tested using cells that were serially passaged in fresh MHB without drugs. The assay was conducted independently in triplicate with three biological replicates.

Gram-positive bacteria [1] = conditions: for GM MIC: geometric mean of MICs, 7 Gram-positive strains (Table 2); for TI, Gram-positive bacteria: therapeutic index TI = MHC/GM MIC
How it was run: (§1)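 MIC is the lowest peptide concentration giving 95% growth inhibition, read at 492 nm after 24 h incubation at 37°C. Peptides were serially diluted in 0.2% BSA and added to mid-logarithmic cells at 0.5–1 × 10^6 CFU mL^–1 in MHB, following a modified NCCLS method, with more than 3 repeats.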

Gram-negative bacteria [2] = conditions: for GM MIC: geometric mean of MICs, 9 Gram-negative strains (Table 2); for TI, Gram-negative bacteria: therapeutic index TI = MHC/GM MIC
How it was run: as §1

MRSA 43300 = format: cell-based, methicillin-resistant S. aureus; conditions: 43300, 24 h
How it was run: (§2)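 Bacteria were grown to mid-log phase and diluted in MHB to 0.5–1 × 10^6 CFU mL^–1. Serial peptide dilutions in 0.2% BSA were added at equal volume and plates incubated 24 h at 37°C. Growth inhibition of 95% at 492 nm defined the MIC.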

[3] = tested on: Listeria monocytogenes CGMCC 1.1075; format: cell-based; conditions: CGMCC 1.1075, 24 h
How it was run: as §2

E. faecalis 29212 = format: cell-based, Enterococcus faecalis; conditions: 29212, 24 h
How it was run: as §2

S. aureus 25923 = format: cell-based, Staphylococcus aureus; conditions: 25923, 24 h
How it was run: as §2

S. aureus 29213 [4] = format: cell-based, Staphylococcus aureus; conditions: 29213, 24 h
How it was run: as §2

E. coli O78 = format: cell-based, Escherichia coli; conditions: O78, 24 h
How it was run: as §2

E. coli UB1005 = format: cell-based, Escherichia coli; conditions: UB1005, 24 h
How it was run: as §2

E. coli 25922 = format: cell-based, Escherichia coli; conditions: 25922, 24 h
How it was run: as §2

S. aureus 29213 [5] = experiment: Salt sensitivity assay (MIC); format: cell-based, Staphylococcus aureus; conditions: for MIC, FeCl3: 4 μM FeCl3; for MIC, NH4Cl: 6 μM NH4Cl; for MIC, ZnCl2: 8 μM ZnCl2; for MIC, MgCl2: 1 mM MgCl2; for MIC, CaCl2: 2 mM CaCl2; for MIC, KCl: 4.5 mM KCl; for MIC, NaCl: 150 mM NaCl; for MIC, Control: no added salt, three independent assays
How it was run: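 Physiological salts (150 mM NaCl, 4.5 mM KCl, 6 μM NH4Cl, 8 μM ZnCl2, 1 mM MgCl2, 2mM CaCl2, 4 μM FeCl3) added to MHB. Bacteria at 0.5–1 × 10^6 CFU/mL exposed to serially diluted peptides for 24 h at 37°C. MIC read as lowest peptide concentration giving 95% growth inhibition by absorbance at 492 nm.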

Gram-negative bacteria [6] = conditions: geometric mean of MBCs, 9 Gram-negative strains (Table 2)
E. coli ATCC 25922 = experiment: Salt sensitivity assay (MIC); format: cell-based, Escherichia coli; conditions: for MIC, FeCl3: 4 μM FeCl3; for MIC, NH4Cl: 6 μM NH4Cl; for MIC, ZnCl2: 8 μM ZnCl2; for MIC, MgCl2: 1 mM MgCl2; for MIC, CaCl2: 2 mM CaCl2; for MIC, KCl: 4.5 mM KCl; for MIC, NaCl: 150 mM NaCl; for MIC, Control: no added salt, three independent assays
How it was run: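 Peptides diluted serially in 0.2% BSA solution were combined at identical volumes with mid-logarithmic E. coli ATCC 25922 in MHB (0.5–1 × 10^6 CFU mL^–1) in 96-well plates, with or without a physiological salt. Plates were incubated for 24 h at 37°C. MIC was the lowest concentration inhibiting 95% of growth, measured as absorbance at 492 nm on a microplate reader.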

B. subtilis 63501 = format: cell-based, Bacillus subtilis; conditions: 63501, 24 h
How it was run: as §2

P. aeruginosa 27853 = format: cell-based, Pseudomonas aeruginosa; conditions: 27853, 24 h
How it was run: as §2

E. coli K99 = conditions: for MIC: MHB, 24 h 37°C, 95% growth inhibition
How it was run: (§3)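 Peptides were serially diluted in 0.2% BSA and added to mid-logarithmic cells diluted in MHB to 0.5–1 × 10^6 CFU mL^–1. Assays followed an adapted NCCLS protocol.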

E. coli K88 = conditions: for MIC: MHB, 24 h 37°C, 95% growth inhibition; for MBC: value in brackets, >99.9% of cells killed
How it was run: as §3

S. epidermidis 12228 = format: cell-based, Staphylococcus epidermidis; conditions: 12228, 24 h
How it was run: as §2

Gram-positive bacteria [7] = conditions: geometric mean of MBCs, 7 Gram-positive strains (Table 2)
[8] = tested on: all of the tested bacterial strains; experiment: Geometric mean of MICs, all tested bacterial strains; format: cell-based; conditions: for GM, All: geometric mean of MICs across all tested strains; for TI, All: therapeutic index TI = MHC/GM MIC
How it was run: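 Per strain, MIC came from absorbance at 492 nm after 24 h at 37°C (≥95% inhibition), using mid-log inoculum of 0.5–1 × 10^6 CFU mL^–1 in MHB and peptide diluted in 0.2% BSA. MBC (>99.9% killed) came from overnight agar plating, and values are geometric means across strains.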

S. pullorum 7913 = format: cell-based, Salmonella pullorum; conditions: 7913, 24 h
How it was run: as §2

S. typhimurium 14028 = format: cell-based, Salmonella typhimurium; conditions: 14028, 24 h
How it was run: as §2

S. typhimurium 7731 = format: cell-based, Salmonella typhimurium; conditions: 7731, 24 h
How it was run: as §2

## CC(C)(O/N=C(\C(=O)N[C@@H]1C(=O)N2C(C(=O)[O-])=C(C[n+]3ccccc3)CS[C@H]12)c1csc(N)n1)C(=O)O [ceftazidime, reference compound]
P. aeruginosa ATCC 27853
  increase of MBC value: 64 fold

## LRRRRLLLL-NH2 [L11]
Gram-positive bacteria [1]
  GM MIC: 57.97 µM
  TI, Gram-positive bacteria: 4.42
Gram-negative bacteria [2]
  GM MIC: 101.59 µM
  TI, Gram-negative bacteria: 2.52
MRSA 43300
  MIC: >64 µM
[3]
  MBC: 16 µM
  MIC: 8 µM
E. faecalis 29212
  MIC: > 64 µM
S. aureus 25923
  MIC: > 64 µM
S. aureus 29213 [4]
  MIC: >64 µM
E. coli O78
  MBC: 128 µM
  MIC: 64 µM
E. coli UB1005
  MIC: >64 µM
E. coli 25922
  MIC: > 64 µM
S. aureus 29213 [5]
  MIC, FeCl3: > 64 µM
  MIC, NH4Cl: > 64 µM
  MIC, ZnCl2: > 64 µM
  MIC, MgCl2: > 64 µM
  MIC, CaCl2: > 64 µM
  MIC, KCl: > 64 µM
  MIC, NaCl: > 64 µM
  MIC, Control: > 64 µM
Gram-negative bacteria [6]
  GM MBC: 118.51 µM
E. coli ATCC 25922
  MIC, FeCl3: > 64 µM
  MIC, NH4Cl: > 64 µM
  MIC, ZnCl2: > 64 µM
  MIC, MgCl2: > 64 µM
  MIC, CaCl2: > 64 µM
  MIC, KCl: > 64 µM
  MIC, NaCl: > 64 µM
  MIC, Control: > 64 µM
B. subtilis 63501
  MBC: 16 µM
  MIC: 8 µM
P. aeruginosa 27853
  MIC: > 64 µM
E. coli K99
  MIC: > 64 µM
E. coli K88
  MIC: 32 µM
  MBC: 64 µM
S. epidermidis 12228
  MIC: > 64 µM
Gram-positive bacteria [7]
  GM MBC: 70.66 µM
[8]
  GM, All: 79.48 µM
  TI, All: 3.22
S. pullorum 7913
  MIC: >64 µM
S. typhimurium 14028
  MIC: > 64 µM
S. typhimurium 7731
  MIC: > 64 µM

## RLLLLRRLR-NH2 [L10]
Gram-positive bacteria [1]
  GM MIC: 70.66 µM
  TI, Gram-positive bacteria: 3.62
Gram-negative bacteria [2]
  GM MIC: 40.32 µM
  TI, Gram-negative bacteria: 6.35
MRSA 43300
  MIC: >64 µM
[3]
  MBC: 32 µM
  MIC: 16 µM
E. faecalis 29212
  MIC: > 64 µM
S. aureus 25923
  MIC: > 64 µM
S. aureus 29213 [4]
  MIC: >64 µM
E. coli O78
  MBC: 32 µM
  MIC: 16 µM
E. coli UB1005
  MIC: > 64 µM
E. coli 25922
  MBC: 64 µM
  MIC: 32 µM
S. aureus 29213 [5]
  MIC, FeCl3: > 64 µM
  MIC, NH4Cl: > 64 µM
  MIC, ZnCl2: > 64 µM
  MIC, MgCl2: > 64 µM
  MIC, CaCl2: > 64 µM
  MIC, KCl: > 64 µM
  MIC, NaCl: > 64 µM
  MIC, Control: > 64 µM
Gram-negative bacteria [6]
  GM MBC: 64.00 µM
E. coli ATCC 25922
  MIC, FeCl3: 32 µM
  MIC, NH4Cl: 32 µM
  MIC, ZnCl2: 32 µM
  MIC, MgCl2: 32 µM
  MIC, CaCl2: 32 µM
  MIC, KCl: 32 µM
  MIC, NaCl: 32 µM
  MIC, Control: 32 µM
B. subtilis 63501
  MBC: 32 µM
  MIC: 16 µM
P. aeruginosa 27853
  MBC: 64 µM
  MIC: 32 µM
E. coli K99
  MIC: 4 µM
E. coli K99; value in brackets, >99.9% of cells killed
  MBC: 8 µM
E. coli K88
  MIC: 32 µM
  MBC: 64 µM
S. epidermidis 12228
  MIC: > 64 µM
Gram-positive bacteria [7]
  GM MBC: 86.14 µM
[8]
  GM, All: 51.54 µM
  TI, All: 4.97
S. pullorum 7913
  MIC: > 64 µM
S. typhimurium 14028
  MIC: >64 µM
S. typhimurium 7731
  MBC: 128 µM
  MIC: 64 µM

## LLLRRRRLL-NH2 [L4]
Gram-positive bacteria [1]
  GM MIC: 86.14 µM
  TI, Gram-positive bacteria: 2.97
Gram-negative bacteria [2]; geometric mean of MICs (Table 3)
  GM, Gram-negative bacteria: 128.00 µM
Gram-negative bacteria [2]
  GM MIC: 128 µM
  TI, Gram-negative bacteria: 2.00
MRSA 43300
  MIC: >64 µM
[3]
  MIC: >64 µM
E. faecalis 29212
  MIC: > 64 µM
S. aureus 25923
  MIC: > 64 µM
S. aureus 29213 [4]
  MIC: >64 µM
E. coli O78
  MIC: >64 µM
E. coli UB1005
  MIC: >64 µM
E. coli 25922
  MIC: > 64 µM
S. aureus 29213 [5]
  MIC, FeCl3: > 64 µM
  MIC, NH4Cl: > 64 µM
  MIC, ZnCl2: > 64 µM
  MIC, MgCl2: > 64 µM
  MIC, CaCl2: > 64 µM
  MIC, KCl: > 64 µM
  MIC, NaCl: > 64 µM
  MIC, Control: > 64 µM
Gram-negative bacteria [6]
  GM MBC: 128 µM
E. coli ATCC 25922
  MIC, FeCl3: > 64 µM
  MIC, NH4Cl: > 64 µM
  MIC, ZnCl2: > 64 µM
  MIC, MgCl2: > 64 µM
  MIC, CaCl2: > 64 µM
  MIC, KCl: > 64 µM
  MIC, NaCl: > 64 µM
  MIC, Control: > 64 µM
B. subtilis 63501
  MBC: 16 µM
  MIC: 8 µM
P. aeruginosa 27853
  MIC: > 64 µM
E. coli K99
  MIC: > 64 µM
E. coli K88
  MIC: >64 µM
S. epidermidis 12228
  MIC: > 64 µM
Gram-positive bacteria [7]
  GM MBC: 95.10 µM
[8]
  GM, All: 107.63 µM
  TI, All: 2.38
S. pullorum 7913
  MIC: >64 µM
S. typhimurium 14028
  MIC: > 64 µM
S. typhimurium 7731
  MIC: > 64 µM
